Measured values reported in PMC8222276 (Communications Biology, 2021).

Key:
[1] = tested on: HUVECs; assay: cell proliferation (72 h) of HUVECs; format: cell-based, human; conditions: HUVEC
Protocol: Data are analysed using a three-parameter non-linear regression curve or the operational model of receptor agonism. g–h Signalling bias plots were calculated as ∆Log(τ/KA) (g) or ∆∆Log(τ/KA) (h) for each agonist and for each signalling pathway. […] Solid arrows indicate known pathways. Dashed arrows represent possible pathways.
Both endothelial cell lines and HCMs were seeded at a density of 2500 cells/well in a clear flat bottom 96-well plate (Corning, UK) and incubated at 37 °C in 5% CO2. After 24 h, cells were exposed to test compounds or vehicle, in complete endothelial cell growth media (HUVECs) or myocyte growth media (HCMs). Cells were incubated for a further 72 h at 37 °C in 5% CO2. After 72 h incubation, 5 μl of Cell Counting Kit–8 (CCK-8, Sigma, UK) was added to each well and cells were then incubated for another 2 h at 37 °C in 5% CO2 and in the dark[61]. The absorbance of each well was measured using a Mithras LB940 microplate reader with an excitation of 450 nm. The absorbance is directly proportional to the number of viable cells. Cell proliferation was calculated as a percentage of number of cells treated with vehicle alone.
(§1) All sample sizes were determined, and data analysed, in accordance with the guidelines described by Curtis M et al.[65]. All experiments were appropriately controlled using ‘system pathway’ agonists. If any of these pathway controls generated inappropriate responses, then the entire data set was removed from analysis. […] Data analysis for cAMP accumulation, Ca^2+i mobilisation, NO accumulation, pERK1/2 activation, and cell proliferation assays were performed in GraphPad Prism 8.4 (GraphPad Software, San Diego). Data were fitted to obtain concentration–response curves using either the three-parameter logistic equation using to obtain values of Emax and pEC50 or the operational model of agonism. Statistical differences were analysed using one-way ANOVA followed by Dunnett’s post-hoc (for comparisons amongst more than two groups) or unpaired Student’s t test with Welch’s correction (for comparison between two groups). To account for the day-to-day variation experienced from the cultured cells, we used the maximal level of cAMP accumulation from cells in response to 100 μM forskolin stimulation was used as a reference, 10 μM ionomycin for Ca^2+i assays, 10 μM phorbol 12-myristate 13-acetate (PMA) for pERK1/2 activation, 10 μM acetylcholine for NO production and 10 μM VEGF for cell proliferation. […] Where appropriate the operational model for receptor agonism[27] was used to obtain efficacy (τ) and equilibrium disassociation constant (KA) values. In both cases, this normalisation removes the variation due to differences in days but retains the variance for control values. The means of individual experiments were combined to generate the curves shown. Having obtained values for τ and KA these were then used to quantify signalling bias as the change in Log(τ/KA)[19],[28]. Error for this composite measure was propagated by applying Eq. 1.1 PooledSEM=(SEMA)^2+(SEMB)^2 Where, SEMA and SEMB are the standard error of measurement A and B.

[2] = molecular target: T1, AM1 receptor (CLR-RAMP2) in HUAECs (Homo sapiens, UniProt O60895+Q16602); assay: mobilisation of Ca2+i in HUAECs; format: cell-based
T1 construct: host or cells: primary HUAECs
T1 sequence (Q16602 23-461): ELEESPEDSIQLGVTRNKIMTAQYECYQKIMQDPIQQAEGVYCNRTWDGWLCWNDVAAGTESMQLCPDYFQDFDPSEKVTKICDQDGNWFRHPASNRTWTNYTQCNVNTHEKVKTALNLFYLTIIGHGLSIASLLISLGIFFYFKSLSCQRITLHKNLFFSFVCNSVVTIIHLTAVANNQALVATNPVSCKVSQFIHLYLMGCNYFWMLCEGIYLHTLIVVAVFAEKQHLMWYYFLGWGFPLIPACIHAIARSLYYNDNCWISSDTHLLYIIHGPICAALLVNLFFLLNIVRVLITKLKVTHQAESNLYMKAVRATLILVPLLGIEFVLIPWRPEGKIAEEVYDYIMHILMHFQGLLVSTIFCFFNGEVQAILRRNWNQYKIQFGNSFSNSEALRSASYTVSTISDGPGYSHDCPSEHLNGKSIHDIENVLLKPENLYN
T1 sequence (O60895 43-175): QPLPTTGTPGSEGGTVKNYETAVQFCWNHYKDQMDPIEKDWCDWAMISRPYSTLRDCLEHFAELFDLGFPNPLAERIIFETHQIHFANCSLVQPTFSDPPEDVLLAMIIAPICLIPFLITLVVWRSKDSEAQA
Protocol: All cell lines were plated at 20,000 cells/well on 96-well black clear-bottom plates (Costar, UK) 24 h before the experiment. […] Cells were then washed twice with calcium-free HBSS, then were left in 100 μl calcium-free HBSS for the duration of the assay. […] Data was normalised to the response seen with 10 μM Ionomycin.
as §1
(1 picture or pasted object on this page, not shown here)

[3] = proliferation, operational model, mean ± SEM
[4] = Ca2+i, HUAEC, operational model, mean ± SEM

CSCC[C@H](NC(=O)[C@H](CC(C)C)NC(=O)[C@H](CCC(N)=O)NC(=O)[C@H](Cc1c[nH]c2ccccc12)NC(=O)[C@H](CC(C)C)NC(=O)[C@H](CCCNC(=N)N)NC(=O)[C@H](Cc1c[nH]cn1)NC(=O)[C@H](CO)NC(=O)[C@H](CC(C)C)NC(=O)[C@H](CC(N)=O)NC(=O)[C@H](CCC(N)=O)NC(=O)[C@@H](NC(=O)[C@H](CCC(N)=O)NC(=O)[C@@H]1CSSC[C@H](NC(=O)CNC(=O)[C@@H](NC(=O)[C@H](CCCNC(=N)N)NC(=O)[C@H](CC(C)C)NC(=O)[C@H](CC(C)C)NC(=O)[C@H](CCC(N)=O)NC(=O)[C@H](C)NC(=O)[C@H](CCC(N)=O)NC(=O)[C@@H](N)[C@@H](C)O)C(C)C)C(=O)N[C@@H](C(C)C)C(=O)N[C@@H](CC(C)C)C(=O)NCC(=O)N[C@@H]([C@@H](C)O)C(=O)N1)C(C)C)C(=O)NCC(=O)N1CCC[C@H]1C(=O)N[C@@H](C)C(=O)NCC(=O)N[C@@H](CCCNC(=N)N)C(=O)N[C@@H](CCC(N)=O)C(=O)N[C@@H](CC(=O)O)C(=O)N[C@@H](CO)C(=O)N[C@@H](C)C(=O)N1CCC[C@H]1C(=O)N[C@H](C(=O)N[C@@H](CC(=O)O)C(=O)N1CCC[C@H]1C(=O)N[C@@H](CO)C(=O)N[C@@H](CO)C(=O)N1CCC[C@H]1C(=O)N[C@@H](Cc1c[nH]cn1)C(=O)N[C@@H](CO)C(=O)N[C@@H](Cc1ccc(O)cc1)C(N)=O)C(C)C [AM2, adrenomedullin 2]
Transducer coefficient Log(τ/KA) ([1]; Growth, calculated from Table S1): 5.74±0.92 | Emax ([1]; proliferation, 72 h, CCK-8, mean ± SEM): 103.74±1.43% | pEC50 ([1]; proliferation, 72 h, mean ± SEM of 3-6 data sets): 7.06±0.9 | logτ [1, 3]: -1.29±0.20 | pKA [1, 3]: 7.03±0.90 | Emax [2]: 50.1 ± 3.22% | Transducer coefficient Log(τ/KA) ([2]; Ca2+i, HUAEC, calculated from Table S1): 7.60±0.14 | logτ [2, 4]: -0.01±0.05 | pKA [2, 4]: 7.61±0.13
